Publication PMC5829162, “Rational Design, Synthesis and Biological Evaluation of Pyrimidine-4,6-diamine derivatives as Type-II inhibitors of FLT3 Selective Against c-KIT” (Scientific Reports, 2018)
Read-outs that look alike come from different tables or passages of the source.

Columns and labels:
Molm14^F691L = assay: Cell proliferation (CellTiter-Glo, 48 h), Molm14 F691L; format: cell-based; conditions: for GI50: Homo sapiens, MOLM-14, Molm14^F691L, 48 hours
Excerpt: (§1) Stable BaF3 populations expressing activated FLT3 were generated by retroviral spinfection with the appropriate mutated plasmid followed by selection and growth factor withdrawal as previously described. The BaF3 cell line was originally obtained from the laboratory of Charles Sawyers and has not been authenticated. MV411 and Molm14 cells were obtained from the laboratory of Scott Kogan and authenticated by Promega STR analysis in June 2013. All cell lines were mycoplasma-free. Cells were incubated with compounds for 48 hours and proliferation was assessed using CellTiter-Glo (Promega; Madison, WI) according to the manufacturer’s recommendation on a SpectraMax M3 microplate reader using SpectraMax Software (Molecular Devices; Sunnyvale, CA). All cell viability data shown is reflective of experiments performed a minimum of three times. […]
(§2) S13. Cell Cultures: Stable BaF3 populations expressing activated FLT3 were generated by retroviral spinfection with the appropriate mutated plasmid followed by selection and growth factor withdrawal as previously described .4 The BaF3 cell line was originally obtained from the laboratory of Charles Sawyers and has not been authenticated. MV411 and Molm14 cells were obtained from the laboratory of Scott Kogan and authenticated by Promega STR analysis in June
(§3) 2013. All cell lines were mycoplasma -free. Cells were incubated with compounds for 48 hours and proliferation was assessed using CellTiter -Glo (Promega; Madison, WI) according to the manufacturer’s recommendation on a SpectraMax M3 microplate reader using SpectraMax Software (Molecular Devices; Sunnyvale, CA). All cell viability data shown is reflective of experiments performed a minimum of three times.

RET = RET (Homo sapiens, UniProt P07949); assay: Biochemical kinase selectivity assay, RET; conditions: in vitro kinase assay; read-out: RET IC50 (nM) ± SD
Chain of RET (P07949 29-1114, species assumed): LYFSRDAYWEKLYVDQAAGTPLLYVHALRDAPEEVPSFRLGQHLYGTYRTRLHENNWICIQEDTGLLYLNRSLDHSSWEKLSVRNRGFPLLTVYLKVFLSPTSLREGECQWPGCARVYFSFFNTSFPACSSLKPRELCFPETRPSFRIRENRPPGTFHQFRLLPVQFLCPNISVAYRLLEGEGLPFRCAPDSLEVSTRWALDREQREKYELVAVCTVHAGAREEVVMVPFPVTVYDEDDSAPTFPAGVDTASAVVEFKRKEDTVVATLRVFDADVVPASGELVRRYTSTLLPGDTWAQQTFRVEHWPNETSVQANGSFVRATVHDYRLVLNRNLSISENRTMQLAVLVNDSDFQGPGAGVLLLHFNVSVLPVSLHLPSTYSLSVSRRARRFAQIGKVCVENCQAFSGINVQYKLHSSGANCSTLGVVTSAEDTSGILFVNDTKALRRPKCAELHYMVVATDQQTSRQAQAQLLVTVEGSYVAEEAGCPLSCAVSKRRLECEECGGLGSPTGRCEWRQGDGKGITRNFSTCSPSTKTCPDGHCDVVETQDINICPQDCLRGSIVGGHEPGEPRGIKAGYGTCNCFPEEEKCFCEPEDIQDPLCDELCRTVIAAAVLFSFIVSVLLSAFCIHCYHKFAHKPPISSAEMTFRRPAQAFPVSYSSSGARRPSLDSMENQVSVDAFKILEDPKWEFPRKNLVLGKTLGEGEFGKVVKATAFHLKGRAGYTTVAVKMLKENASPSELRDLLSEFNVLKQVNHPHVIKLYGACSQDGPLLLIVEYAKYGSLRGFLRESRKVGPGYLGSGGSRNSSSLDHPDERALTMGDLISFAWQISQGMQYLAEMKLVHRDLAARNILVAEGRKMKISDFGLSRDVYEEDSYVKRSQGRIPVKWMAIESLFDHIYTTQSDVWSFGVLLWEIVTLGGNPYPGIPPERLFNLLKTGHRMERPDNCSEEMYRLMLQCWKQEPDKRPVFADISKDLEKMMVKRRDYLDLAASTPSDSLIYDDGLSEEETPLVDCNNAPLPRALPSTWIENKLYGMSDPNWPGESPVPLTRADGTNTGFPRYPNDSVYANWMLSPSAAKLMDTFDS

Molm14^D835Y = assay: Cell proliferation (CellTiter-Glo, 48 h), Molm14 D835Y; format: cell-based; conditions: for GI50: Homo sapiens, MOLM-14, Molm14^D835Y, 48 hours
Excerpt: as §1, §2, §3

c-KIT = c-KIT (Homo sapiens, UniProt P10721); assay: Biochemical kinase selectivity assay, c-KIT
Chain of c-KIT (P10721 26-976): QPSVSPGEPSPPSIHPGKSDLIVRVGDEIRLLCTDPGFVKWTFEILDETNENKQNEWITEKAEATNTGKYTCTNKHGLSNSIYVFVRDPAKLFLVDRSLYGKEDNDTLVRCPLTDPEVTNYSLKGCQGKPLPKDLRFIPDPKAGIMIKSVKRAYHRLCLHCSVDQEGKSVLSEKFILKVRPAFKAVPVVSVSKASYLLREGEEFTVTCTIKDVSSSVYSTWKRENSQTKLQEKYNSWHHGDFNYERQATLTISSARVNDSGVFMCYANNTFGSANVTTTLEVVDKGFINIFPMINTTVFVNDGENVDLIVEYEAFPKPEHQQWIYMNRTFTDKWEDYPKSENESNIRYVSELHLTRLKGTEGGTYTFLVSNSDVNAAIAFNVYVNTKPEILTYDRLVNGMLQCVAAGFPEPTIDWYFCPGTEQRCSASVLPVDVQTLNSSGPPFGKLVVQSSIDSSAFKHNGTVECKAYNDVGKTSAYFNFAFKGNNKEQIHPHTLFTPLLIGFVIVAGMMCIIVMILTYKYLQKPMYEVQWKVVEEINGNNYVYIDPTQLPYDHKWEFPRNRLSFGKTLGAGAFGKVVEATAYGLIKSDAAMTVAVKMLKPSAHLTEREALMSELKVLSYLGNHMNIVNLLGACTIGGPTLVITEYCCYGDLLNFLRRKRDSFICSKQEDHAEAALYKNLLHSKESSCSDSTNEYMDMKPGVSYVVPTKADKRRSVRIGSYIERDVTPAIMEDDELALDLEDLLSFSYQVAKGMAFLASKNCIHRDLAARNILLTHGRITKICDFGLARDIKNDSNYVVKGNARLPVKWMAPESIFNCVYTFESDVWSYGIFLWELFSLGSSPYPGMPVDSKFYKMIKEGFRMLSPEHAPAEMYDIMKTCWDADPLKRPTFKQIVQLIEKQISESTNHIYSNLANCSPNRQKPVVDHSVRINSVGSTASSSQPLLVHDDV

FLT3-driven cell lines = assay: Cell-based studies, FLT3-driven cell lines overall; conditions: range over the FLT3 cell lines
Excerpt: as §1
S13. […]
2013. […] Cells were incubated with compounds for 48 hours and proliferation was assessed using CellTiter -Glo (Promega; Madison, WI) according to the manufacturer’s recommendation on a SpectraMax M3 microplate reader using SpectraMax Software (Molecular Devices; Sunnyvale, CA). […]

| GI50 (Molm14^F691L) [µM] | IC50 (RET) [nM] | GI50 (Molm14^D835Y) [µM] | IC50 (c-KIT; as printed in Fig. 2, read-out: cKit IC50) [nM] | IC50 (c-KIT; in vitro kinase assay, read-out: c-KIT IC50 (nM) ± SD) [nM] | selectivity for FLT3 over c-KIT (c-KIT; in vitro kinase assays) [fold] | SMILES | fold reduction in cellular activity against Molm14^F691L (Molm14^F691L; gatekeeper mutation, relative to the parental FLT3-ITD cells) | fold reduction in cellular activity against Molm14^D835Y (Molm14^D835Y; relative to the parental FLT3-ITD cells) | GI50 (FLT3-driven cell lines) [µM] |
| --- | --- | --- | --- | --- | --- | --- | --- | --- | --- |
| 1.34 | 4710 ± 342 | 1.84 | 8800 | 8800 | > 500 | Cn1nc(C(C)(C)C)cc1NC(=O)Cc1ccc(Nc2cc(Nc3ccc(S(C)(=O)=O)cc3)ncn2)cc1 [13a, 2-(4-(6-(4-(Methylsulfonyl)phenylamino)pyrimidin-4-ylamino)phenyl)-N-(3-tert-butyl-1-methyl-1H-pyrazol-5-yl)acetamide] | ~ 10 fold | ~ 10 fold | 0.009 to 2 |
| 2.14 | 1660 | 2.61 | – | – | – | CC(C)(C)c1cc(NC(=O)Cc2ccc(Nc3cc(Nc4ccc(S(C)(=O)=O)cc4)ncn3)cc2)no1 [13k, 2-(4-(6-(4-(Methylsulfonyl)phenylamino)pyrimidin-4-ylamino)phenyl)-N-(5-tert-butylisoxazol-3-yl)acetamide] | – | – | – |
